Here are results for one compound from publication PMC7582316, “Structural and Computational Insights into a Blebbistatin-Bound Myosin•ADP Complex with Characteristics of an ADP-Release Conformation along the Two-Step Myosin Power Stoke” (International Journal of Molecular Sciences, 2020).

The target in the assay is T1, Dd myosin-II motor domain (Dictyostelium discoideum, UniProt P08799).
T1 construct: gene mhcA; His6-tagged motor domain, amino acids 1–765 fused to a C-terminal SSB tag
Nature of the assay: microscale thermophoresis (MST); also X-ray crystal structure with blebbistatin. The class given is binding. A general note: MST reads how a fluorescent partner responds to local heating, with and without ligand.

T1 sequence (P08799 1-765): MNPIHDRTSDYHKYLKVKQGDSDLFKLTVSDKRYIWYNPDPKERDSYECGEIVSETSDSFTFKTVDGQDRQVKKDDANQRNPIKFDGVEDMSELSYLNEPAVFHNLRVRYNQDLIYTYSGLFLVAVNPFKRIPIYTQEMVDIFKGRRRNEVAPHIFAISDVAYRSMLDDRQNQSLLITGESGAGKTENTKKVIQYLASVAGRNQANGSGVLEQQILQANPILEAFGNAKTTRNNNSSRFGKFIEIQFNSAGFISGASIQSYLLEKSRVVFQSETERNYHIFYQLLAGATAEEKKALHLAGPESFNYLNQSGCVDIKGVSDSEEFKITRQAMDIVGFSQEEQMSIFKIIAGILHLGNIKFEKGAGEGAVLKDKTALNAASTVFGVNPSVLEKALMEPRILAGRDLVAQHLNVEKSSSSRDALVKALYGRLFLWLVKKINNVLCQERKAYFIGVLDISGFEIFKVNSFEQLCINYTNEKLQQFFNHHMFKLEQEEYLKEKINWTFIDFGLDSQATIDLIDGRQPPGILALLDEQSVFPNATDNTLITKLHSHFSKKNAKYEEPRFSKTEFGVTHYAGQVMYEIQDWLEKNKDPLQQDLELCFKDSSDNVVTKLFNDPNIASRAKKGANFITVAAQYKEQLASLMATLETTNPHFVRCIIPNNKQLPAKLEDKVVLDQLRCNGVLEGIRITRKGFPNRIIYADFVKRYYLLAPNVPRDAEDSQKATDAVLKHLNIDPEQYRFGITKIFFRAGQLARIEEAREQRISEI

As usually defined, the Kd is the concentration at which binding is half-saturated. Higher therefore signals a looser complex. On to `Nc1ncnc2c1ncn2[C@@H]1O[C@H](COP(=O)(O)OP(=O)(O)O)[C@@H](O)[C@H]1O` [ADP], for which the Kd came out at 37.5 ± 7.3 µM.
